From patent US9718799B2, “3-aryl-4H-chromene-4-ones as antineoplastic agents for the treatment of cancer” (The University of Kentucky Research Foundation, priority 2015, dated 2017)

Tests used:
[1] = test system: different cancer cell lines; settings: cited from earlier work
[2] = test system: PC3 prostate cancer cells; assay: Cell proliferation assay in prostate cancer PC3 cells; type: cell-based; settings: Homo sapiens, PC-3
Method: Cell Proliferation Assay:
PC3 prostate cancer cells were cultured in DMEM/F-12 HAM Mixture (Sigma D8437), 10% Fetal Bovine Serum (Atlanta Biological S11150). Before the treatment, 3.5×10^4 cells per well were split into 12-well plates. After 24 h, 10 μM of each compound was added to each well. DMSO was used as a control. This experiment was done in triplicate. Cell viability and number were analyzed using Vi-Cell XR Cell Viability Analyzer (Beckman Coulter).

[3] = test system: PC3 prostate cancer cells; assay: as above; type: cell-based
[4] = test system: P388 leukemia cells; settings: cited from earlier work

melting point | SMILES | inhibition at 10 µM [2] | further results
 | O=c1c(-c2ccc(O)cc2)coc2cc(O)cc(O)c12 [genistein (B), genistein] |  | IC50 [1]: 15 to 100 µM
 | COc1ccc(-c2coc3c(COC(C)=O)c(OC(C)=O)ccc3c2=O)cc1 [Isoflavonoid 7d, 7-(Acetoxy)-8-(acetoxymethyl)-3-(4-methoxyphenyl)-4H-chromen-4-one] | 99.2 ± 0.4% | potency at 1 µM concentration ([3]; 1 µM concentration): retained potency
209 to 210 °C | COc1ccc(-c2c(C)oc3c4c(ccc3c2=O)OC2OCCCC2C4)cc1OC (stereo not shown) [Isoflavonoid 21h, 3-(3,4-Dimethoxyphenyl)-2-methyl-10,11,11a,12-tetrahydro-4H,7aH,9H-dipyrano[2,3-b:2′,3′-f]chromen-4-one] | 44 ± 3% | 
196 to 198 °C | COc1ccc(-c2coc3c4c(ccc3c2=O)OC2=C(C4)C(=O)CC(C)(C)C2)cc1OC [Isoflavonoid 22b, 3-(3,4-Dimethoxyphenyl)-9,9-dimethyl-8,9,10,12-tetrahydro-4H,11H-pyrano[2,3-a]xanthene-4,11-dione] | 86 ± 1% | inhibition at 10 µM ([2]; PC3 cells, 10 μM): 86%; inhibition at 1 µM ([3]; Homo sapiens, PC-3, 1 μM): 31%
163 to 165 °C | COc1ccccc1-c1coc2c(CO)c(O)ccc2c1=O [Isoflavonoid 9c, 7-Hydroxy-8-(hydroxymethyl)-3-(2-methoxyphenyl)-4H-chromen-4-one] | 0% | 
167 to 169 °C (dec.) | COCc1c(O)ccc2c(=O)c(-c3ccc(OC)cc3)coc12 [Isoflavonoid 11d, 7-Hydroxy-8-(methoxymethyl)-3-(4-methoxyphenyl)-4H-chromen-4-one] | 34.9 ± 3.3% | 
212 to 213 °C | COc1ccc(-c2c(C)oc3c4c(ccc3c2=O)OC2(O)CCCCC2C4)cc1 (stereo not shown) [Isoflavonoid 24g, 7a-Hydroxy-3-(4-methoxyphenyl)-2-methyl-8,9,10,11,11a,12-hexahydro-4H,7aH-pyrano[2,3-a]xanthen-4-one] | 78 ± 1% | 
138 to 139 °C | COc1ccc(-c2coc3cc(OC)c(CO)c(O)c3c2=O)cc1 [Isoflavonoid 8b, 5-Hydroxy-6-(hydroxymethyl)-7-methoxy-3-(4-methoxyphenyl)-4H-chromen-4-one] | 0% | 
 | COCc1c(OC)cc(O)c2c(=O)cc(C)oc12 [8-(methoxymethyl)eugenin] |  | cytotoxicity [4]: moderate cytotoxicity
201 to 202 °C | COc1ccc(-c2coc3c4c(ccc3c2=O)OC2OCCC2C4)cc1 (stereo not shown) [Isoflavonoid 20a, 3-(4-Methoxyphenyl)-9,10,10a,11-tetrahydro-4H,7aH-furo[2,3-b]pyrano[2,3-f]chromen-4-one] | 62 ± 7% | 
179 to 181 °C | O=c1c(-c2ccc3c(c2)OCO3)coc2c3c(ccc12)OC1OCCCC1C3 (stereo not shown) [Isoflavonoid 21c, 3-(1,3-Benzodioxol-5-yl)-10,11,11a,12-tetrahydro-4H,7aH,9H-dipyrano[2,3-b:2′,3′-f]chromen-4-one] | 68% | 
155 to 157 °C | COc1ccc(-c2coc3c(C)c4c(cc3c2=O)CC2CCOC2O4)cc1 (stereo not shown) [Isoflavonoid 25a, 3-(4-Methoxyphenyl)-11-methyl-6a,7,8,9a-tetrahydro-4H,6H-furo[2,3-b]pyrano[3,2-g]chromen-4-one] | 78 ± 3% | 
212 to 214 °C (dec.) | COc1ccc(-c2c(C)oc3c(CO)c(O)ccc3c2=O)cc1 [Isoflavonoid 9e, 7-Hydroxy-8-(hydroxymethyl)-3-(4-methoxyphenyl)-2-methyl-4H-chromen-4-one] | 99.5 ± 0.5% | 
100 to 101 °C | COc1ccccc1-c1coc2cc(OC)c(CO)c(O)c2c1=O [Isoflavonoid 8a, 5-Hydroxy-6-(hydroxymethyl)-7-methoxy-3-(2-methoxyphenyl)-4H-chromen-4-one] | 14.6 ± 3.2% | 
194 to 195 °C | O=c1c(-c2ccc(Cl)cc2)coc2c3c(ccc12)OC1OCCC1C3 (stereo not shown) [Isoflavonoid 20e, 3-(4-Chlorophenyl)-9,10,10a,11-tetrahydro-4H,7aH-furo[2,3-b]pyrano[2,3-f]chromen-4-one] | 63 ± 10% | 
139 to 141 °C | COc1ccc(-c2coc3c(CO)c(OC)cc(O)c3c2=O)cc1 [Isoflavonoid 9b, 5-Hydroxy-8-(hydroxymethyl)-7-methoxy-3-(4-methoxyphenyl)-4H-chromen-4-one] | 79.5 ± 3.6% | 
180 to 181 °C | COCc1c(OC)cc2occ(-c3ccc(OC)cc3)c(=O)c2c1O [Isoflavonoid 10b, 5-Hydroxy-7-methoxy-6-(methoxymethyl)-3-(4-methoxyphenyl)-4H-chromen-4-one] | 0% | 
199 to 200 °C | COc1ccc(-c2c(C)oc3c4c(ccc3c2=O)OC2OCCCC2C4)cc1 (stereo not shown) [Isoflavonoid 21g, 3-(4-Methoxyphenyl)-2-methyl-10,11,11a,12-tetrahydro-4H,7aH,9H-dipyrano[2,3-b:2′,3′-f]chromen-4-one] | 62% | 
123 to 124 °C | COCc1c(OC)cc2occ(-c3ccccc3OC)c(=O)c2c1O [Isoflavonoid 10a, 5-Hydroxy-7-methoxy-6-(methoxymethyl)-3-(2-methoxyphenyl)-4H-chromen-4-one] | 53.4 ± 8% | 
203 to 205 °C | O=c1c(-c2ccc3c(c2)OCO3)coc2c3c(ccc12)OC1OCCC1C3 (stereo not shown) [Isoflavonoid 20c, 3-(1,3-Benzodioxol-5-yl)-9,10,10a,11-tetrahydro-4H,7aH-furo[2,3-b]pyrano[2,3-f]chromen-4-one] | 47 ± 4% | 
177 to 178 °C | COc1ccc(-c2coc3c4c(ccc3c2=O)OC2OCCCC2C4)cc1OC (stereo not shown) [Isoflavonoid 21b, 3-(3,4-Dimethoxyphenyl)-10,11,11a,12-tetrahydro-4H,7aH,9H-dipyrano[2,3-b:2′,3′-f]chromen-4-one] | 35 ± 10% | 
214 to 216 °C | COc1ccc(-c2coc3c4c(ccc3c2=O)OC2(O)CCCCC2C4)cc1OC (stereo not shown) [Isoflavonoid 24b, 3-(3,4-Dimethoxyphenyl)-7a-hydroxy-8,9,10,11,11a,12-hexahydro-4H,7aH-pyrano[2,3-a]xanthen-4-one] | 56 ± 5% | 
222 to 223 °C | COc1ccc(-c2coc3c4c(ccc3c2=O)OC2(O)CCCCC2C4)cc1 (stereo not shown) [Isoflavonoid 24a, 7a-Hydroxy-3-(4-methoxyphenyl)-8,9,10,11,11a,12-hexahydro-4H,7aH-pyrano[2,3-a]xanthen-4-one] | 30 ± 15% | 
